30 molecules from patent publication US5834487A, “Inhibition of 26S and 20S proteasome by indanones” (CV Therapeutics, priority 1996, dated 1998) can be followed below.

Converted amounts (≈) assume the structure as drawn.

In this assay the target is T1, 20S catalytic subunit of the proteasome (multicatalytic proteinase complex) (Bos taurus, UniProt Q32KL2).
T1 construct: was purified to homogeneity from bovine brain according to published methods; from tissue; host or cells: bovine brain
Briefly: 20S proteasome chymotryptic activity, fluorogenic peptide cleavage. The class given is biochemical, bovine. To be noted: 50 μM succinyl-leu-leu-val-tyr-7-amino-4-methyl coumarin, 15 minutes at 37° C, pH7.5. In outline: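 Purified bovine-brain 20S proteasome (2 μg) with 0.1-100 μg/ml inhibitor in 50 mM HEPES, 0.1% SDS, pH 7.5. Reaction started with 50 μM Suc-LLVY-AMC, 15 min at 37° C, stopped with pH 4.0 acetate; liberated AMC read by fluorescence (ex 370, em 430 nm).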
For `COc1ccc2c(c1)C(CC(=O)NCc1ccc3c(c1)OCO3)CC2=O` (stereo not drawn) [Compound 80], the half-inhibitory concentration (IC50) (commonly the concentration that gives 50% inhibition) is greater than 10 µg/mL. The value for `COc1ccc2c(c1)C(CC(=O)N1CCC(O)CC1)CC2=O` (stereo not drawn) [Compound 81] was greater than 10 µg/mL; that for `COc1ccc2c(c1)C(CC(=O)Nc1cccc(I)c1)CC2=O` (stereo not drawn) [Compound 82] was greater than 10 µg/mL. In turn, `COc1ccc2c(c1)C(CC(=O)NC1CCc3ccccc31)CC2=O` (stereo not drawn) [Compound 83] displayed an IC50 greater than 10 µg/mL. The value for `COc1ccc2c(c1)C(CC(=O)NCCO)CC2=O` (stereo not drawn) [Compound 84] was greater than 10 µg/mL; that for `COc1ccc(CNC(=O)CC2CC(=O)c3ccc(OC)cc32)cc1` (stereo not drawn) [Compound 85] was greater than 10 µg/mL.

In turn, `CCCC[C@@H](NC(=O)[C@H](CC(C)C)NC(=O)CC1CC(=O)c2ccc(OC)cc21)C(=O)NCC(N)=O` (stereo partly drawn) [Compound 86] had an IC50 greater than 10 µg/mL. The value for `CCC[C@@H](NC(=O)[C@H](CC(C)C)NC(=O)CC1CC(=O)c2ccc(OC)cc21)C(=O)NCC(N)=O` (stereo partly drawn) [Compound 87] was greater than 10 µg/mL.

`COc1ccc2c(c1)C(CC(=O)N[C@@H](CC(C)C)C(=O)N[C@H](Cc1ccccc1)C(=O)NCC(N)=O)CC2=O` (stereo partly drawn) [Compound 88]: the half-maximal inhibitory concentration (IC50) was greater than 10 µg/mL. `COc1ccc2c(c1)C(CC(=O)N[C@@H](CC(C)C)C(=O)N[C@H](CC1CCCCC1)C(=O)NCC(N)=O)CC2=O` (stereo partly drawn) [Compound 89] gave an IC50 greater than 10 µg/mL.

With `COc1ccc2c(c1)C(CC(=O)N[C@@H](CC(C)C)C(=O)N[C@@H](C(=O)NCC(N)=O)C(C)C)CC2=O` (stereo partly drawn) [Compound 90], the IC50 was greater than 10 µg/mL. To `COc1ccc2c(c1)C(CC(=O)N[C@@H](CC(C)C)C(=O)N[C@@H](C(=O)NCC(N)=O)c1ccccc1)CC2=O` (stereo partly drawn) [Compound 91] belongs 10 µg/mL (≈ 19.1 µM); to `COc1ccc2c(c1)C(CC(=O)NCc1ccncc1)CC2=O` (stereo not drawn) [Compound 104], greater than 10 µg/mL.

Take `COc1ccc2c(c1)C(CC(=O)N1CCSCC1)CC2=O` (stereo not drawn) [Compound 106]: the IC50 was greater than 10 µg/mL. `COc1ccc2c(c1)C(CC(=O)NCc1ccccc1OC)CC2=O` (stereo not drawn) [Compound 107] showed an IC50 greater than 10 µg/mL. The value for `COc1ccc2c(c1)C(CC(=O)N1CCC(C)CC1)CC2=O` (stereo not drawn) [Compound 108] was greater than 10 µg/mL; that for `COc1ccc2c(c1)C(CC(=O)N1CCC(O)C1)CC2=O` (stereo not drawn) [Compound 109] was greater than 10 µg/mL; that for `COc1ccc2c(c1)C(CC(=O)NC1CCN(Cc3ccccc3)CC1)CC2=O` (stereo not drawn) [Compound 110] was greater than 10 µg/mL.

Consider `COc1ccc2c(c1)C(CC(=O)NCC(O)CO)CC2=O` (stereo not drawn) [Compound 111], for which the IC50 was greater than 10 µg/mL.

`COc1ccc2c(c1)C(CC(=O)NCCN1CCCC1)CC2=O` (stereo not drawn) [Compound 112] yielded an IC50 greater than 10 µg/mL. With `COc1ccc2c(c1)C(CC(=O)NC(C)(C)CO)CC2=O` (stereo not drawn) [Compound 113], the 50% inhibitory concentration (IC50) was greater than 10 µg/mL.

Regarding `COc1ccc2c(c1)C(CC(=O)NCc1ccccn1)CC2=O` (stereo not drawn) [Compound 114], the 50% inhibitory concentration (IC50) is greater than 10 µg/mL. The value for `COc1ccc2c(c1)C(CC(=O)N(C)CCO)CC2=O` (stereo not drawn) [Compound 115] was greater than 10 µg/mL; that for `COc1ccc2c(c1)C(CC(=O)N(CCC#N)Cc1cccnc1)CC2=O` (stereo not drawn) [Compound 116] was greater than 10 µg/mL; that for `COCCNC(=O)CC1CC(=O)c2ccc(OC)cc21` (stereo not drawn) [Compound 117] was greater than 10 µg/mL. As to `COc1ccc2c(c1)C(CC(=O)NC(CO)C(O)c1ccccc1)CC2=O` (stereo not drawn) [Compound 118], the IC50 was greater than 10 µg/mL. The value for `COc1ccc2c(c1)C(CC(=O)N1CCCC1CO)CC2=O` (stereo not drawn) [Compound 119] was greater than 10 µg/mL; that for `COc1ccc2c(c1)C(CC(=O)NCCCc1ccccc1)CC2=O` (stereo not drawn) [Compound 120] was greater than 10 µg/mL; that for `COc1ccc(NC(=O)CC2CC(=O)c3ccc(OC)cc32)cc1` (stereo not drawn) [Compound 121] was greater than 10 µg/mL. To `COc1ccc2c(c1)C(CC(=O)Nc1ccccc1)CC2=O` (stereo not drawn) [Compound 122] belongs greater than 10 µg/mL.
